Assay [1] has as its target T1, GST-tagged KRAS-G12D (2-169) (Homo sapiens, UniProt P01116, G12D).
T1 construct: GST-tagged KRAS-G12D (2-169, Reaction Biology, MSC-11-539); purchased Reaction Biology MSC-11-539 (KRAS G12D); MSC-11-502 (SOS1cat)
In words: Nucleotide exchange assay (NEA), SOS-mediated, HTRF, KRAS G12D. The format is biochemical. The settings on record: Table 4; IC50 extracted at 30 min. Summed up: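 IC50 values come from 4-parameter fits at the 30 min time point of an SOS-driven exchange read by HTRF, normalised to DMSO (0%) and SOS-free blank (100%). Final reaction: 5 nM GST-KRAS-G12D (2-169), 20 nM SOScat, 150 nM fluorescent GTP-DY-647P1, after 1 h RT compound preincubation with KRAS and Tb-cryptate anti-GST.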
(In general: In TR-FRET formats the signal depends on donor and acceptor labels being close together.)

The target of another assay is T2, KRAS G12D/RAF1 (Homo sapiens, UniProt P01116, G12D).
T2 construct: His6-MBP (N, cleaved yes); made in house; host or cells: E. coli
T2 sequence (P01116 with tags, fused parts or gaps isoform P01116-2 G12D): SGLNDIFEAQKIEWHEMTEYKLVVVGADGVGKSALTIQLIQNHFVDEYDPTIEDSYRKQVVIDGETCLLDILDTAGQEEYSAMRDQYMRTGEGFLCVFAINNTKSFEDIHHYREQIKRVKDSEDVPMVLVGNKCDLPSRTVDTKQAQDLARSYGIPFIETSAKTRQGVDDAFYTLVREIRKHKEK
Kind of assay: Protein-protein interaction (PPI) HTRF assay KRAS G12D/RAF1. Type of assay: binding. Particulars: Table 4. Put shortly: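 HTRF pairing of His-tagged RAF1 (52-131) plus Tb-cryptate donor with GppNHp-exchanged biotin-RAS (KRAS 1-169 wt/G12D/G12V, NRAS wt) plus streptavidin-d2 acceptor; compound sits 30 min with RAS first, then 1 h RT with RAF1. IC50 derived from 665/615 ratio, untagged RAF1 defining full inhibition.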

These results are taken from patent publication US12145947B2, “Pyrimidine based modulators and uses thereof” (Quanta Therapeutics, Inc., priority 2022, dated 2024).

A value given as a limit tells only on which side of the number the result lay.

T1 sequence (P01116 2-169 isoform P01116-2 G12D): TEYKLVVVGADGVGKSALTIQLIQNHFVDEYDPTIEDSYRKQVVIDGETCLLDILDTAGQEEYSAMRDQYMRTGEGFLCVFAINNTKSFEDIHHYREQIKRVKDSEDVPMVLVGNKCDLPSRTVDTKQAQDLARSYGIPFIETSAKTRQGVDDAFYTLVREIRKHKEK

On to `N#Cc1cnc(OCC2(CN3CCOCC3)CC2)nc1N1CC2(CCc3sc(N)c(C#N)c32)C1` [Compound 66, 2-amino-1′-[5-cyano-2-[[1-(morpholinomethyl)cyclopropyl]methoxy]pyrimidin-4-yl]spiro[5,6-dihydrocyclopenta[b]thiophene-4,3′-azetidine]-3-carbonitrile], for which the IC50 was 100 to 1000 nM in assay [1] and 10000 to 100000 nM on KRAS G12D/RAF1.
Take `CC1Cn2nncc2CN1c1nc(OC[C@@]23CCCN2C[C@H](F)C3)nc(N2CC3(CCc4sc(N)c(C#N)c43)C2)c1C#N` (stereo partly drawn) [Compound 67, 2-amino-1′-[5-cyano-6-(6-methyl-6,7-dihydro-4H-triazolo[1,5-a]pyrazin-5-yl)-2-[[(2R,8S)-2-fluoro-1,2,3,5,6,7-hexahydropyrrolizin-8-yl]methoxy]pyrimidin-4-yl]spiro[5,6-dihydrocyclopenta[b]thiophene-4,3′-azetidine]-3-carbonitrile]: the IC50 in assay [1] lay within 100 to 1000 nM; at KRAS G12D/RAF1, 10000 to 100000 nM.
As for `N#Cc1c(N2C[C@H]3CC[C@@H](C2)N3)nc(OCC2(CN3CCOCC3)CC2(F)F)nc1N1CC2(CCc3sc(N)c(C#N)c32)C1` (stereo partly drawn) [Compound 68, 2-amino-1-[5-cyano-2-[[2,2-difluoro-1-(morpholinomethyl)cyclopropyl]methoxy]-6-[(1R,5S)-3,8-diazabicyclo[3.2.1]octan-3-yl]pyrimidin-4-yl]spiro[5,6-dihydrocyclopenta[b]thiophene-4,3′-azetidine]-3-carbonitrile], the IC50 in assay [1] was less than 10 nM; on KRAS G12D/RAF1 it was 1000 to 10000 nM.
For `N#Cc1c(N2C[C@H]3CC[C@@H](C2)N3)nc(OCC2(CN3CCSCC3)CC2)nc1N1CC2(CCc3sc(N)c(C#N)c32)C1` [Compound 72, 2-amino-1′-[5-cyano-6-[(1R,5S)-3,8-diazabicyclo[3.2.1]octan-3-yl]-2-[[1-(thiomorpholinomethyl)cyclopropyl]methoxy]pyrimidin-4-yl]spiro[5,6-dihydrocyclopenta[b]thiophene-4,3′-azetidine]-3-carbonitrile], the IC50 in assay [1] was less than 10 nM; against KRAS G12D/RAF1 it was 100 to 1000 nM.
As for `C[C@H]1COCCN1CC1(COc2nc(N3C[C@H]4CC[C@@H](C3)N4)c(C#N)c(N3CC4(CCc5sc(N)c(C#N)c54)C3)n2)CC1` [Compound 77, 2-amino-1′-[5-cyano-6-[(1R,5S)-3,8-diazabicyclo[3.2.1]octan-3-yl]-2-[[1-[[(3S)-3-methylmorpholin-4-yl]methyl]cyclopropyl]methoxy]pyrimidin-4-yl]spiro[5,6-dihydrocyclopenta[b]thiophene-4,3′-azetidine]-3-carbonitrile], the figures for the IC50 (in assay [1]; on KRAS G12D/RAF1) were less than 10 nM and 10000 to 100000 nM, respectively.
Take `N#Cc1c(N2C[C@H]3CC[C@@H](C2)N3)nc(OCC2(CN3C[C@@H](F)[C@@H](F)C3)CC2)nc1N1CC2(CCc3sc(N)c(C#N)c32)C1` [Compound 78, 2-amino-1′-[5-cyano-6-[(1R,5S)-3,8-diazabicyclo[3.2.1]octan-3-yl]-2-[[1-[[(3S,4R)-3,4-difluoropyrrolidin-1-yl]methyl]cyclopropyl]methoxy]pyrimidin-4-yl]spiro[5,6-dihydrocyclopenta[b]thiophene-4,3′-azetidine]-3-carbonitrile]: the IC50 was 10 to 100 nM in assay [1] and greater than 100000 nM on KRAS G12D/RAF1.
Regarding `C[C@@H]1COCCN1CC1(COc2nc(N3C[C@H]4CC[C@@H](C3)N4)c(C#N)c(N3CC4(CCc5sc(N)c(C#N)c54)C3)n2)CC1` [Compound 82, 2-amino-1′-[5-cyano-6-[(1R,5S)-3,8-diazabicyclo[3.2.1]octan-3-yl]-2-[[1-[[(3R)-3-methylmorpholin-4-yl]methyl]cyclopropyl]methoxy]pyrimidin-4-yl]spiro[5,6-dihydrocyclopenta[b]thiophene-4,3′-azetidine]-3-carbonitrile], the IC50 was 100 to 1000 nM in assay [1] and 10000 to 100000 nM against KRAS G12D/RAF1.
The matching figures for `CN1CCC[C@H]1COc1nc(N2C[C@H]3CC[C@@H](C2)N3)c(C#N)c(N2CC3(CCc4sc(N)c(C#N)c43)C2)n1` [Compound 83, 2-amino-1′-[5-cyano-6-[(1R,5S)-3,8-diazabicyclo[3.2.1]octan-3-yl]-2-[[(2S)-1-methylpyrrolidin-2-yl]methoxy]pyrimidin-4-yl]spiro[5,6-dihydrocyclopenta[b]thiophene-4,3′-azetidine]-3-carbonitrile]: less than 10 nM and 100 to 1000 nM.
Regarding `N#Cc1c(N2C[C@H]3CC[C@@H](C2)N3)nc(OCC2(c3ccccc3)CC2)nc1N1CC2(CCc3sc(N)c(C#N)c32)C1` [Compound 84, 2-amino-1′-[5-cyano-6-[(1R,5S)-3,8-diazabicyclo[3.2.1]octan-3-yl]-2-[(1-phenylcyclopropyl)methoxy]pyrimidin-4-yl]spiro[5,6-dihydrocyclopenta[b]thiophene-4,3′-azetidine]-3-carbonitrile], the IC50 was less than 10 nM in assay [1] and 100 to 1000 nM against KRAS G12D/RAF1.
For `N#Cc1c(N2C[C@H]3CC[C@@H](C2)N3)nc(OCc2[nH]ncc2F)nc1N1CC2(CCc3sc(N)c(C#N)c32)C1` [Compound 90, 2-amino-1′-[5-cyano-6-[(1R,5S)-3,8-diazabicyclo[3.2.1]octan-3-yl]-2-[(4-fluoro-1H-pyrazol-5-yl)methoxy]pyrimidin-4-yl]spiro[5,6-dihydrocyclopenta[b]thiophene-4,3′-azetidine]-3-carbonitrile], in that order: 10 to 100 nM and 10000 to 100000 nM.
For `N#Cc1c(N2C[C@H]3CC[C@@H](C2)N3)nc(OCC2(CN3CCS(=O)(=O)CC3)CC2)nc1N1CC2(CCc3sc(N)c(C#N)c32)C1` [Compound 95, 2-amino-1′-[5-cyano-6-[(1R,5S)-3,8-diazabicyclo[3.2.1]octan-3-yl]-2-[[1-[(1,1-dioxo-1,4-thiazinan-4-yl)methyl]cyclopropyl]methoxy]pyrimidin-4-yl]spiro[5,6-dihydrocyclopenta[b]thiophene-4,3′-azetidine]-3-carbonitrile], in that order: less than 10 nM and 1000 to 10000 nM.
On to `N#Cc1c(N2C[C@H]3CC[C@@H](C2)N3)nc(OCc2n[nH]cc2Br)nc1N1CC2(CCc3sc(N)c(C#N)c32)C1` [Compound 102, 2-amino-1′-[2-[(4-bromo-1H-pyrazol-3-yl)methoxy]-5-cyano-6-[(1S,5R)-3,8-diazabicyclo[3.2.1]octan-3-yl]pyrimidin-4-yl]spiro[5,6-dihydrocyclopenta[b]thiophene-4,3′-azetidine]-3-carbonitrile], for which the IC50 is less than 10 nM in assay [1] and 10000 to 100000 nM at KRAS G12D/RAF1.
On to `N#Cc1c(N2C[C@H]3CC[C@@H](C2)N3)nc(OCc2cn[nH]n2)nc1N1CC2(CCc3sc(N)c(C#N)c32)C1` [Compound 103, 2-amino-1′-[5-cyano-6-[(1R,5S)-3,8-diazabicyclo[3.2.1]octan-3-yl]-2-(2H-triazol-4-ylmethoxy)pyrimidin-4-yl]spiro[5,6-dihydrocyclopenta[b]thiophene-4,3′-azetidine]-3-carbonitrile], for which the 50% inhibitory concentration (IC50) in assay [1] is 10 to 100 nM; at KRAS G12D/RAF1 it was 10000 to 100000 nM.
Consider `N#Cc1c(N2C[C@H]3CC[C@@H](C2)N3)nc(OCc2n[nH]cc2Cl)nc1N1CC2(CCc3sc(N)c(C#N)c32)C1` [Compound 104, 2-amino-1′-[2-[(4-chloro-1H-pyrazol-3-yl)methoxy]-5-cyano-6-[(1R,5S)-3,8-diazabicyclo[3.2.1]octan-3-yl]pyrimidin-4-yl]spiro[5,6-dihydrocyclopenta[b]thiophene-4,3′-azetidine]-3-carbonitrile], for which the IC50 was less than 10 nM in assay [1] and 10000 to 100000 nM at KRAS G12D/RAF1.
For the compound `N#Cc1c(N2C[C@H]3CC[C@@H](C2)N3)nc(OCc2cc(Cl)[nH]n2)nc1N1CC2(CCc3sc(N)c(C#N)c32)C1` [Compound 105, 2-amino-1′-[2-[(5-chloro-1H-pyrazol-3-yl)methoxy]-5-cyano-6-[(1R,5S)-3,8-diazabicyclo[3.2.1]octan-3-yl]pyrimidin-4-yl]spiro[5,6-dihydrocyclopenta[b]thiophene-4,3′-azetidine]-3-carbonitrile], the IC50 in assay [1] is less than 10 nM; against KRAS G12D/RAF1, 10000 to 100000 nM.
Consider `N#Cc1c(N2C[C@H]3CC[C@@H](C2)N3)nc(OCc2n[nH]cc2C(F)(F)F)nc1N1CC2(CCc3sc(N)c(C#N)c32)C1` [Compound 106, 2-amino-1′-[5-cyano-6-[(1R,5S)-3,8-diazabicyclo[3.2.1]octan-3-yl]-2-[[4-(trifluoromethyl)-1H-pyrazol-3-yl]methoxy]pyrimidin-4-yl]spiro[5,6-dihydrocyclopenta[b]thiophene-4,3′-azetidine]-3-carbonitrile], for which the IC50 in assay [1] lay in the range of 10 to 100 nM; against KRAS G12D/RAF1, 10000 to 100000 nM.
As for `Cc1nc(COc2nc(N3C[C@H]4CC[C@@H](C3)N4)c(C#N)c(N3CC4(CCc5sc(N)c(C#N)c54)C3)n2)n[nH]1` [Compound 107, 2-amino-1′-[5-cyano-6-[(1R,5S)-3,8-diazabicyclo[3.2.1]octan-3-yl]-2-[(5-methyl-1H-1,2,4-triazol-3-yl)methoxy]pyrimidin-4-yl]spiro[5,6-dihydrocyclopenta[b]thiophene-4,3′-azetidine]-3-carbonitrile], the 50% inhibitory concentration (IC50) in assay [1] fell in the range of 10 to 100 nM; against KRAS G12D/RAF1, 10000 to 100000 nM.

For orientation: IC50 means the concentration that inhibits the measured activity by half.
